Measurements from ChEMBL document CHEMBL2203171, “The use of small molecule probes to study spatially separated stimulus-induced signaling pathways” (Bioorg Med Chem Lett, 2012).
Active and inactive are the calls of the source.

Legend:
Assay type in all cases: cell-based
[1] = target: T1, Inhibitor of nuclear factor kappa-B kinase subunit beta (Mus musculus) (UniProt O88351); test: Inhibition of IKKbeta in C57BL/6 mouse BMDM cells assessed as inhibition of TNFalpha-induced IkappaBalpha degradation at 50 uM up to 90 mins by Western blot analysis
T1 sequence (whole entry): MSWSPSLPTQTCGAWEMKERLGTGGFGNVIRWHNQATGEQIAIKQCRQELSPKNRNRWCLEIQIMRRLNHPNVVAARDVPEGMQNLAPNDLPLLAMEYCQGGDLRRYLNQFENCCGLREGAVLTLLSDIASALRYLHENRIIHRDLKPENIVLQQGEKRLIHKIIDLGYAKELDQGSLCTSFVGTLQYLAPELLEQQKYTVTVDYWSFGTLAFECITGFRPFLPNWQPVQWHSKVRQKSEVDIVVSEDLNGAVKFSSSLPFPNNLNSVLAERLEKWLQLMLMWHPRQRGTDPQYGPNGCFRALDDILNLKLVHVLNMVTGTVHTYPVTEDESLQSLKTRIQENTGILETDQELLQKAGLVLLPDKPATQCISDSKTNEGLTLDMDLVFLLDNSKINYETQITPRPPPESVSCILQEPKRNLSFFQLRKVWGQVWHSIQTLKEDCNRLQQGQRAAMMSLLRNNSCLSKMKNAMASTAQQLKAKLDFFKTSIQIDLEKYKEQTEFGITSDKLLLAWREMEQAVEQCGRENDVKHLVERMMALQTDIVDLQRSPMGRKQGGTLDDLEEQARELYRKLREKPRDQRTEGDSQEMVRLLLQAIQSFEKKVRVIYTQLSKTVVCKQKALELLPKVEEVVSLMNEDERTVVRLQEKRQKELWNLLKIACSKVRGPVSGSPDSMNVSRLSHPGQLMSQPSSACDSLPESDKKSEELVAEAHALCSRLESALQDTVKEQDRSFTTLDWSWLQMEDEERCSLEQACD

[2] = target: T2, MAP kinase p38 (Mus musculus) (UniProt P47811+O08911+Q9WUI1+Q9Z1B7); test: Inhibition of MAPK p38 in C57BL/6 mouse BMDM cells assessed as inhibition of TNFalpha-induced phosphorylation at 50 uM up to 90 mins by Western blot analysis
[3] = target: T1, Inhibitor of nuclear factor kappa-B kinase subunit beta (Mus musculus); test: Inhibition of IKKbeta in C57BL/6 mouse BMDM cells assessed as inhibition of TNFalpha-induced IkappaBalpha phosphorylation at 50 uM up to 90 mins by Western blot analysis
[4] = target: T1, Inhibitor of nuclear factor kappa-B kinase subunit beta (Mus musculus); test: Inhibition of IKKbeta in C57BL/6 mouse BMDM cells assessed as inhibition of LPS-induced IkappaBalpha phosphorylation at 50 uM up to 90 mins by Western blot analysis
[5] = target: T1, Inhibitor of nuclear factor kappa-B kinase subunit beta (Mus musculus); test: Inhibition of IKKbeta in C57BL/6 mouse BMDM cells assessed as inhibition of LPS-induced IkappaBalpha degradation at 50 uM up to 90 mins by Western blot analysis
[6] = target: T2, MAP kinase p38 (Mus musculus); test: Inhibition of MAPK p38 in C57BL/6 mouse BMDM cells assessed as inhibition of LPS-induced phosphorylation at 50 uM up to 90 mins by Western blot analysis

COc1ccc(-c2ccc(C(C(=O)NC(C)(C)C)N(C(=O)CCc3ccc(O)c(O)c3)C(C)(C)C)cc2)cc1 (configuration not stated)
inactive: inhibition [1] | inhibition [2] | inhibition [3] | inhibition of IkappaBalpha phosphorylation (active/not active) [4] | inhibition (active/not active) [5] | inhibition [6]

COc1ccc(C(=O)N(Cc2ccccn2)C(C(=O)NC(C)(C)C)c2ccc(-c3ccc(OC)cc3)cc2)cc1 (configuration not stated)
inactive: inhibition [1] | inhibition [2] | inhibition [3] | inhibition of IkappaBalpha phosphorylation (active/not active) [4] | inhibition (active/not active) [5] | inhibition [6]
